Experimental data reported in publication PMC11971462, “Generation and validation of a novel multitarget small molecule in glioblastoma” (Cell Death & Disease, 2025).

Test system: GNS166 cells
Experiment: Label-free proteomics differential expression
Type: cell-based, human
Method: Proteomic studies were performed by the Proteomics Facility of the CIC bioGUNE by label-free relative quantification on nLC MS/MS. […] In both approaches, the top 20 enriched terms were plotted and the pathways were clustered using divisive hierarchical clustering based on pairwise Jaccard distances.

## C#CCN(Cc1cc2cc(OCCCN3CCCCC3)ccc2n1S(=O)(=O)c1ccccc1)C(=O)CCCCCCC(=O)NO [DDI]
Protein Q13112 GN=CHAF1B
  LogFC CAF1B_HUMAN: -1.512
Protein Q13188 GN=STK3
  LogFC STK3_HUMAN: 0.6701
Protein Q13257
  Direction MD2L1_HUMAN: Down
  LogFC MD2L1_HUMAN: -1.113
Protein Q13310 GN=PABPC4
  LogFC PABP4_HUMAN: -0.5988
Protein Q13330
  Direction MTA1_HUMAN: Down
  LogFC MTA1_HUMAN: -1.705
Protein Q13362
  Direction 2A5G_HUMAN: Down
  LogFC 2A5G_HUMAN: -1.224
Protein Q13501
  Direction SQSTM_HUMAN: Down
  LogFC SQSTM_HUMAN: -1.0987
Protein Q13509 GN=TUBB3
  LogFC TBB3_HUMAN: 0.7942
Protein Q13563 GN=PKD2
  LogFC PKD2_HUMAN: -0.7081
Protein Q13595 GN=TRA2A
  LogFC TRA2A_HUMAN: -0.7095
Protein Q13885 GN=TUBB2A
  LogFC TBB2A_HUMAN: 0.9316
Protein Q13907 GN=IDI1
  LogFC IDI1_HUMAN: 0.7277
Protein Q14008
  Direction CKAP5_HUMAN: Down
  LogFC CKAP5_HUMAN: -0.6393
Protein Q14123
  Direction PDE1C_HUMAN: Down
  LogFC PDE1C_HUMAN: -1.117
Protein Q14152
  Direction EIF3A_HUMAN: Down
  LogFC EIF3A_HUMAN: -0.389
Protein Q14157
  Direction UBP2L_HUMAN: Down
  LogFC UBP2L_HUMAN: -0.8648
Protein Q14166 GN=TTLL12
  LogFC TTL12_HUMAN: 0.5228
Protein Q14185
  Direction DOCK1_HUMAN: Down
  LogFC DOCK1_HUMAN: -1.615
Protein Q14204
  Direction DYHC1_HUMAN: Down
  LogFC DYHC1_HUMAN: -0.3165
Protein Q14249
  Direction NUCG_HUMAN: Down
  LogFC NUCG_HUMAN: -2.036
Protein Q14254
  Direction FLOT2_HUMAN: Down
  LogFC FLOT2_HUMAN: -1.186
Protein Q14393
  Direction GAS6_HUMAN: Down
  LogFC GAS6_HUMAN: -2.504
Protein Q14651 GN=PLS1
  LogFC PLSI_HUMAN: 1.442
Protein Q14683
  Direction SMC1A_HUMAN: Down
  LogFC SMC1A_HUMAN: -0.5055
Protein Q14693 GN=LPIN1
  LogFC LPIN1_HUMAN: 0.9551
Protein Q14694
  Direction UBP10_HUMAN: Down
  LogFC UBP10_HUMAN: -0.9311
Protein Q14807
  Direction KIF22_HUMAN: Down
  LogFC KIF22_HUMAN: -3.469
Protein Q14839 GN=CHD4
  LogFC CHD4_HUMAN: -0.985
Protein Q14974
  Direction IMB1_HUMAN: Down
  LogFC IMB1_HUMAN: -0.6185
Protein Q15003
  Direction CND2_HUMAN: Down
  LogFC CND2_HUMAN: -1.758
Protein Q15020 GN=SART3
  LogFC SART3_HUMAN: -0.5999
Protein Q15021
  Direction CND1_HUMAN: Down
  LogFC CND1_HUMAN: -2.0518
Protein Q15036
  Direction SNX17_HUMAN: Down
  LogFC SNX17_HUMAN: -1.453
Protein Q15046
  Direction SYK_HUMAN: Down
  LogFC SYK_HUMAN: -0.4877
Protein Q15070
  Direction OXA1L_HUMAN: Down
  LogFC OXA1L_HUMAN: -1.062
Protein Q15126 GN=PMVK
  LogFC PMVK_HUMAN: 1.337
Protein Q15149
  Direction PLEC_HUMAN: Down
  LogFC PLEC_HUMAN: -0.7
Protein Q15223 GN=NECTIN1
  LogFC NECT1_HUMAN: -1.589
Protein Q15345
  Direction LRC41_HUMAN: Down
  LogFC LRC41_HUMAN: -1.0607
Protein Q15418 GN=RPS6KA1
  LogFC KS6A1_HUMAN: 1.988
Protein Q15435 GN=PPP1R7
  LogFC PP1R7_HUMAN: 0.5315
Protein Q15555 GN=MAPRE2
  LogFC MARE2_HUMAN: 3.286
Protein Q15642 GN=TRIP10
  LogFC CIP4_HUMAN: 1.0065
Protein Q15645
  Direction PCH2_HUMAN: Down
  LogFC PCH2_HUMAN: -0.9654
Protein Q15800
  Direction MSMO1_HUMAN: Down
  LogFC MSMO1_HUMAN: -0.8085
Protein Q15833 GN=STXBP2
  LogFC STXB2_HUMAN: 0.5821
Protein Q16513
  Direction PKN2_HUMAN: Down
  LogFC PKN2_HUMAN: -0.7145
Protein Q16531
  Direction DDB1_HUMAN: Down
  LogFC DDB1_HUMAN: -0.3715
Protein Q16555 GN=DPYSL2
  LogFC DPYL2_HUMAN: 0.9356
Protein Q16763 GN=UBE2S
  LogFC UBE2S_HUMAN: -1.229
Protein Q16850 GN=CYP51A1
  LogFC CP51A_HUMAN: -0.6587
Protein Q16880 GN=UGT8
  LogFC CGT_HUMAN: 1.956
Protein Q16881 GN=TXNRD1
  LogFC TRXR1_HUMAN: 0.6582
Protein Q92542
  Direction NICA_HUMAN: Down
  LogFC NICA_HUMAN: -1.398
Protein Q92544
  Direction TM9S4_HUMAN: Down
  LogFC TM9S4_HUMAN: -1.2661
Protein Q92609 GN=TBC1D5
  LogFC TBCD5_HUMAN: -0.4214
Protein Q92621 GN=NUP205
  LogFC NU205_HUMAN: -0.751
Protein Q92626
  Direction PXDN_HUMAN: Down
  LogFC PXDN_HUMAN: -0.8349
Protein Q92754
  Direction AP2C_HUMAN: Down
  LogFC AP2C_HUMAN: -1.895
Protein Q92797
  Direction SYMPK_HUMAN: Down
  LogFC SYMPK_HUMAN: -0.8433
Protein Q92845 GN=KIFAP3
  LogFC KIFA3_HUMAN: 1.431
Protein Q92888
  Direction ARHG1_HUMAN: Down
  LogFC ARHG1_HUMAN: -0.7775
Protein Q92974
  Direction ARHG2_HUMAN: Down
  LogFC ARHG2_HUMAN: -0.6456
Protein Q93008 GN=USP9X
  LogFC USP9X_HUMAN: 0.7813
Protein Q93034
  Direction CUL5_HUMAN: Down
  LogFC CUL5_HUMAN: -0.617
Protein Q93050 GN=ATP6V0A1
  LogFC VPP1_HUMAN: 1.447
Protein Q93074
  Direction MED12_HUMAN: Down
  LogFC MED12_HUMAN: -2.0643
Protein Q93100
  Direction KPBB_HUMAN: Down
  LogFC KPBB_HUMAN: -2.118
Protein Q99442
  Direction SEC62_HUMAN: Down
  LogFC SEC62_HUMAN: -2.138
Protein Q99536 GN=VAT1
  LogFC VAT1_HUMAN: 1.276
Protein Q99567
  Direction NUP88_HUMAN: Down
  LogFC NUP88_HUMAN: -0.8011
Protein Q99574 GN=SERPINI1
  LogFC NEUS_HUMAN: 4.964
Protein Q99615 GN=DNAJC7
  LogFC DNJC7_HUMAN: -0.8769
Protein Q99735
  Direction MGST2_HUMAN: Down
  LogFC MGST2_HUMAN: -1.016
